Literature values as cited in patent US20200268684A1, “COMPOSITION FOR TREATING AND PREVENTING NEUROLOGICAL DISEASES, NEUROINFLAMATION AND ALZHEIMER'S DISEASE” (HSRX GROUP, LLC, priority 2015, published 2020).

Tested on: Aβ1-40 and Aβ1-42 peptides in SweAPP N2a cells
Settings: 3-30 μg/mL, 12 hours

COc1cc(/C=C/C(=O)CC(=O)/C=C/c2ccc(O)c(OC)c2)ccc1O [curcumin]
reduction of Aβ1-40 and Aβ1-42 peptides secreted: significant inhibition
